[5FU] = 5-fluorouracil base replacing uracil
What was measured:
cancer cells = experiment: Real-time qRT-PCR of modified miR entry into cancer cells; type: cell-based, human; settings: quantitative Real-Time PCR
Experimental: Real-time qRT-PCR analysis of nucleic acid expression. The expression levels of microRNAs in cancer cells were quantified. Briefly, the primers specific to the microRNA of interest and an internal control RNU44 gene were purchased from Ambion. cDNA synthesis was performed by the High Capacity cDNA Synthesis Kit (Applied Biosystems) with miRNA-specific primers. Real-time qRT-PCR was carried out on an Applied Biosystems 7500 Real-Time PCR machine with miRNA-specific primers by TaqMan Gene Expression Assay (Applied Biosystems). Expression level of the exemplary miRs of the present disclosure was calculated by the ΔΔCT method based on the internal control RNU44, normalized to the control group and plotted as relative quantification.

TS-FdUMP = biological target: T1, TS-FdUMP (Homo sapiens, UniProt P04818); experiment: Western blot of TS-FdUMP in colon cancer cells; type: cell-based; settings: colon/colorectal cancer cells
T1 construct: endogenous in cells
Experimental: (§1) Western immunoblot analysis: Forty-eight hours after transfection, equal amounts of protein (15 μg) extracted from cells lysed in RIPA buffer with protease inhibitor (Sigma) and were separated on 10%-12% sodium dodecyl sulfate-polyacrylamide gels using standard procedures. The primary antibodies used for the analysis were rabbit anti-YAP1 monoclonal antibody (1:10000) (Cell Signaling Technologies), anti-DLCK1 (1:500) (Abcam), anti-BCL2 (1:500) (NeoMarkers), anti-MDC1 (1:500), anti-SUZ12 (1:500), anti-pChk-1 (1:500), anti beta-actin (1:500), anti-BMI-1 (1:10000) (Cell Signaling Technologies), mouse anti-human TS antibody (1:500), anti-α-tubulin (1:50000) (Santa Cruz Biotech Inc.), anti-GAPDH (1:100000) (Santa Cruz Biotech Inc.), anti-E2F3 (1:500) (Santa Cruz Biotech Inc.), Horseradish peroxidase-conjugated antibodies against mouse or rabbit (1:5000, Santa Cruz Biotech Inc.) were used as the secondary antibodies. Protein bands were visualized with autoradiography film using SuperSignal West Pico Chemiluminescent Substrate (Thermo Fischer). Western blot density was quantified using Image J software.

[1] = tested on: HCT116, RKO, SW480, and SW620 colon cancer cells; experiment: FITC-Annexin V apoptosis assay; set-up: species or system human; settings: FACS-based FITC-Annexin assay, all 4 colon cancer cell lines, compared to native miR-129 and negative control miRNA
Experimental: Apoptosis Assay. To distinguish between early and late apoptosis, a fluorescein isothiocyanate (FITC)—Annexin assay was done (Becton Dickinson). HCT116, RKO, SW480 and SW620 cells were plated into 6 well plates (1×10^5) cells per well, after 24 h, cells were transfected with 25 nM modified miRNAs using Oligofectamine. Forty-eight hours after transfection, cells were harvested, stained with propidium iodide and anti-annexin-V antibody (Annexin V-FITC Apoptosis Detection kit, Invitrogen, CA, USA) following the manufacturer's protocol, and stained cells were detected by flow cytometry.

SW480 colon cancer cells = experiment: WST-1 cell proliferation assay, SW480; type: cell-based, human; settings: SW480, in words, vs controls
Experimental: (§2) For transfections, 1×10^5 cells were plated in six-well plates and transfected with 100 nM of control non-specific miRNA (Thermo Fischer), a modified microRNA, or exogenous native microRNA after 24 hours using Oligofectamine (Thermo Fischer) following the manufacturer's protocols. For reagent free transfection, cells were plated in 6 well plates at (1×10^5) cells per well. Twenty-four hours later 100 pmol miRNA (Control, miR-15a, Mimic-1) were diluted in Optimem (Thermo Fischer) and added to the plate. Media was changed after 24 hours. Media was supplemented with 10% fetal bovine serum (Thermo Fischer). Briefly, cells were cultured in growth media (DMEM/F12 supplemented with B27, 10 ng/mL bFGF, and 20 ng/mL EGF (Life Technologies) in ultra-low attachment flasks) for up to 6 days. […]
(§3) Cell proliferation assay: Twenty-four hours after transfection, cells were seeded in 96-well plates at a density of 2000 cells per well. The cell proliferation assay was performed on days 1 to 5 by incubating 10 μl WST-1 (Roche Applied Science, Mannheim, Germany) in the culture medium for 1 h and reading the absorbance at 450 and 630 nm. The cell proliferation rate was calculated by subtracting the absorbance at 450 nm from the absorbance at 630 nm. […] The O.D. was calculated by subtracting the absorbance at 630 nm from that at 450 nm. […]

TS, BCL2 and E2F3 = experiment: Western immunoblot of miR-129 targets in HCT-116 cells; type: cell-based, human; settings: colon cancer HCT-116 cells
Experimental: as §1

RKO colon cancer cells = experiment: WST-1 cell proliferation assay, RKO; type: cell-based, human; settings: in words, vs controls
Experimental: as §2, §3

[2] = tested on: colorectal cancer stem cell xenograft; experiment: Colorectal cancer stem cell mouse xenograft model; type: in vivo; settings: cells pre transfected, eight weeks after injection, n=8
Experimental: Mouse subcutaneous tumor implantation model: Two days before injection, HCT116 colorectal cancer stem cells or MDA-MB-231 breast cancer cells were plated at 5×10^5/well in a 6-well ultra low attachment plate. 20 μL of the virus or 100 pmole exemplary modified miR-129 or modified miR-15a were used to transduce or transfect cells. Forty-eight hours later, cells were collected and re-suspended at 10^6/ml in DMEM/F12 knockout media with 30% matrigel. Ten-twelve week-old NOD/SCID mice (Jackson Laboratories, Bar Harbor, […], USA) were used for tumor implantation. The mice were anesthetized by isoflurane inhalation. 100 μL of cell suspension was injected subcutaneously into both sides of the lower back area. The tumor size was measured using a caliper, and tumor volume was calculated using the formula V=length×width^2/2.
Modified miR-15a inhibits cancer development and progression in vivo. A colorectal cancer stem cell mouse xenograft model was established that included colorectal cancer cells that have been either pre transfected with modified miR-15a or negative control miRNA. Eight weeks after injection, tumors were measured and harvested.

T1 sequence (P04818 2-313 limits assumed): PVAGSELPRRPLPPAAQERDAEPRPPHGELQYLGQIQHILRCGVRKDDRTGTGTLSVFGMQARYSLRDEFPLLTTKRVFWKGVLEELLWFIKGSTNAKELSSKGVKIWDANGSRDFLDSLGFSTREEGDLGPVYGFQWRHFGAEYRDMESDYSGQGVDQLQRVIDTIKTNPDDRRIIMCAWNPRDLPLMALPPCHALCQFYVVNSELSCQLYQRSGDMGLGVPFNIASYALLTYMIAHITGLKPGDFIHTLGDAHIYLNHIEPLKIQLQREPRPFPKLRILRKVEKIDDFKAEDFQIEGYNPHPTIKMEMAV

Substance | entry into cancer cells (cancer cells) | TS-FdUMP break down (TS-FdUMP) | induction of apoptosis [1] [fold] | inhibition of colon cancer cell proliferation (SW480 colon cancer cells) | target specificity to TS, BCL2 and E2F3 (TS, BCL2 and E2F3; Western immunoblot) | reducing the expression levels of TS, BCL2 and E2F3 (TS, BCL2 and E2F3; compared with unmodified (control) miR-129) | inhibition of colon cancer cell proliferation (RKO colon cancer cells) | reduction in tumor size [2] [×]
CU^FU^FU^FU^FU^FGCGGU^FCU^FGGGCU^FU^FGC (CUUUUUGCGGUCUGGGCUUGC; RNA, [5FU] at 2, 3, 4, 5, 6, 11, 13, 18, 19, backbone not given here) [modified miR-129] | enter cancer cells | break downs TS-FdUMP significantly better than 5-FU alone | 2 to 30 | inhibition of colon cancer cell proliferation | retain their target specificity | more potent than unmodified (control) miR-129 | inhibition of colon cancer cell proliferation | 
U^FAGCAGCACAU^FAAU^FGGU^FU^FU^FGU^FG (UAGCAGCACAUAAUGGUUUGUG; RNA, [5FU] at 1, 11, 14, 17, 18, 19, 21, backbone not given here) [modified miR-15a] |  | break downs TS-FdUMP |  |  |  |  | enhanced ability to inhibit colon cancer cell proliferation | > 25
